# Source: patent publication US8822455B2, “Fused aminodihydrothiazine derivatives” (Eisai R&D Management Co., Ltd., priority 2011, dated 2014)
# Tested on: Aβ42
# Experiment: In vitro cellular assay (Aβ42): quantification of Aβ peptide in culture of neurons from rat fetus brain (ELISA)
# Type: cell-based
# Settings: Primary cortical neuron, 72 h, rat primary cortical neurons (embryonic day 18 Wistar), 3 days after addition of compound, read-out: Cell IC50
# Experimental: In vitro Cellular Assay (Aβ42):
# Quantification of AβPeptide in Culture of Neurons from Rat Fetus Brain
# (1) Rat Primary Neuronal Culture
# Primary neuronal cultures were prepared from the cerebral cortex of embryonic day 18 Wistar rats (Charles River, UK). Specifically, the embryos were aseptically removed from pregnant rats under ether anesthesia. The brain was isolated from the embryo and immersed in HBSS (Sigma Aldrich #H9269) containing 10 mM HEPES (Gibco #15630-056). The cerebral cortex was collected from the isolated brain under a stereoscopic microscope. The cerebral cortex fragments collected were enzymatically treated in an enzyme solution containing 0.05% trypsin-EDTA solution (GIBCO, #25300) at 37° C. for 20 minutes to disperse the cells. The cells were then washed twice and then gently resuspended in Neurobasal medium (Gibco #21103) supplemented with 2% B27 supplement (GIBCO #17504-044), 0.5 mM L-glutamine (GIBCO #25030), 1×N2 (GIBCO #17502-048), 100 ug/ml Pen/Strep (GIBCO 15140-122) and 5% heat inactivated FCS (PAA #A15-701). The cell dispersion was filtered through a 40-μm nylon mesh (BD Falcon #352340) to remove the remaining cell mass, and thus a neuronal cell suspension was obtained. The neuronal cell suspension was diluted with the medium above and then plated in a volume of 100 μL/well at an initial cell density of 3.25×10^5 cells/ml in poly-D-lysine coated 96-well culture plate (Greiner #655940). The plated cells were cultured in the culture plate at 37° C. in 5% CO2-95% air for 24 hrs. The total amount of the medium was replaced with ‘assay Neurobasal medium’ (as above excluding heat inactivated FCS), and then the cells were cultured for a further five days.
# The drug was added to the culture plate on Day 6 of culture as follows. 8 point compound serial dilutions were generated in DMSO at a concentration of ×1000 that of the final assay concentration (FAC). Compound solutions were then prepared by adding 999 ul of ‘Assay Neurobasal media’ (as described in above section) to 1 ul of DMSO compound stock. The total amount of the medium was removed from each of the cell plate wells, and 200 μL/well of compound solution was added. The final DMSO concentration was 0.1%.
# The cells were cultured for either 1 or 3 days after addition of the compound for ABx-40 and ABx-42 assays respectively. 150 μl of sample medium was collected and used as the ELISA sample.
# Human/Rat β Amyloid (42) ELISA Kit Wako (#290-62601) and Human/Rat β Amyloid (40) ELISA Kit Wako (#294-62501) from Wako Pure Chemical Industries, Ltd. were used for Aβ ELISA Aβ ELISA was carried out according to the protocols recommended by the manufacturers, described in the documents accompanying the kits. The results were shown as percentage of the control groups and IC50 values for each compound were determined using four parameter logistic fit model using the XLFIT5 software package (IDBS).
row,SMILES,IC50
1,"C[C@H]1OC[C@]2(c3cc(-c4ccccc4)ccc3F)N=C(N)SC[C@H]12 [Example 5, (4aS,5R,7aS)-7a-(4-Fluoro-[1,1′-biphenyl]-3-yl)-5-methyl-4a,5,7,7a-tetrahydro-4H-furo[3,4-d][1,3]thiazin-2-amine]",450 nM
2,"COc1cncc(-c2ccc(F)c([C@]34CO[C@H](C)[C@H]3CSC(N)=N4)c2)c1 [Example 8, (4aS,5R,7aS)-7a-(2-fluoro-5-(5-methoxypyridin-3-yl)phenyl)-5-methyl-4a,5,7,7a-tetrahydro-4H-furo[3,4-d][1,3]thiazin-2-amine]",23 nM
3,"C[C@H]1OC[C@]2(c3cc(-c4ncc[nH]4)ccc3F)N=C(N)SC[C@H]12 [Example 2, (4aS,5R,7aS)-7a-(2-Fluoro-5-(1H-imidazo-2-yl)phenyl)-5-methyl-4a,5,7,7a-tetrahydro-4H-furo[3,4-d][1,3]thiazin-2-amine]",749 nM
4,"C[C@H]1OC[C@]2(c3cc(-c4ccn[nH]4)ccc3F)N=C(N)SC[C@H]12 [Example 17, (4aS,5R,7aS)-7a-(2-Fluoro-5-(1H-pyrazol-5-yl)phenyl)-5-methyl-4a,5,7,7a-tetrahydro-4H-furo[3,4-d][1,3]-thiazin-2-amine]",977 nM
5,"CC#Cc1cncc(-c2ccc(F)c([C@]34CO[C@H](C)[C@H]3CSC(N)=N4)c2)c1 [Example 19, (4aS,5R,7aS)-7a-(2-fluoro-5-(5-(prop-1-yn-1-yl)pyridin-3-yl)phenyl)-5-methyl-4a 5,7,7a-tetrahydro-4H-furo[3,4-d][1,3]thiazin-2-amine]",17 nM
